Laboratory results reported in PubChem BioAssay AID256 (DTP/NCI, 2004).
Where “and” joins values, the source holds several entries; their conditions need not be identical. Equal entries are not always repeated. Toxic doses and inconclusive results are not listed. Rule for the calls: active = survival T/C of 150% or more; inactive = T/C below 125% in these data.

Tested on: CD2F1 mice, L1210 leukemia ip, survival T/C
Assay: NCI In Vivo Anticancer Drug Screen. Data for tumor model L1210 Leukemia (intraperitoneal) in CD2F1 (CDF1) mice
Details: higher = longer survival
Procedure, shortened: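 Compound-dosed mice with transplantable tumor versus matched vehicle controls; endpoint ratio T/C reported.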

[1] = endpoint: mean survival time, dose: 100.0 mg/kg/injection, schedule: Q01DX009 (ip), vehicle: saline with Tween-80
[2] = endpoint: mean survival time, dose: 200.0 mg/kg/injection, schedule: Q01DX009 (ip), vehicle: saline with Tween-80
[3] = endpoint: mean survival time, dose: 400.0 mg/kg/injection, schedule: Q01DX009 (ip), vehicle: saline with Tween-80
[4] = endpoint: mean survival time, dose: 100.0 mg/kg/injection, schedule: Q04DX003 (ip), vehicle: saline with Tween-80
[5] = endpoint: mean survival time, dose: 200.0 mg/kg/injection, schedule: Q04DX003 (ip), vehicle: saline with Tween-80
[6] = endpoint: mean survival time, dose: 400.0 mg/kg/injection, schedule: Q04DX003 (ip), vehicle: saline with Tween-80
[7] = endpoint: mean survival time, dose: 12.5 mg/kg/injection, schedule: Q01DX009 (ip), vehicle: saline
[8] = endpoint: mean survival time, dose: 100.0 mg/kg/injection, schedule: Q01DX009 (ip), vehicle: other
[9] = endpoint: mean survival time, dose: 200.0 mg/kg/injection, schedule: Q01DX009 (ip), vehicle: other
[10] = endpoint: mean survival time, dose: 50.0 mg/kg/injection, schedule: Q01DX009 (ip), vehicle: saline with Tween-80
[11] = endpoint: mean survival time, dose: 25.0 mg/kg/injection, schedule: Q01DX009 (ip), vehicle: saline
[12] = endpoint: mean survival time, dose: 50.0 mg/kg/injection, schedule: Q01DX009 (ip), vehicle: saline

Measured: T/C

CCNNC(=O)[C@@H]1[C@H](c2cc(OC)c(OC)c(OC)c2)c2cc3c(cc2[C@H](O)[C@H]1CO)OCO3
inactive: endpoint: mean survival time, dose: 7.8 mg/kg/injection, schedule: Q01DX Z (ip), vehicle: saline 100 % of control | endpoint: mean survival time, dose: 15.6 mg/kg/injection, schedule: Q01DX Z (ip), vehicle: saline 96 % of control | endpoint: mean survival time, dose: 31.3 mg/kg/injection, schedule: Q01DX Z (ip), vehicle: saline 103 % of control | endpoint: mean survival time, dose: 62.5 mg/kg/injection, schedule: Q01DX Z (ip), vehicle: saline 111 % of control

NC(CNC(=O)CBr)C(=O)O (stereo not drawn)
active: endpoint: median survival time, dose: 24.0 mg/kg/injection, schedule: Q01DX009 (ip), vehicle: water 156 % of control | endpoint: median survival time, dose: 48.0 mg/kg/injection, schedule: Q01DX009 (ip), vehicle: water 156 % of control
inactive: endpoint: median survival time, dose: 3.0 mg/kg/injection, schedule: Q01DX009 (ip), vehicle: water 111 % of control | endpoint: median survival time, dose: 6.0 mg/kg/injection, schedule: Q01DX009 (ip), vehicle: water 122 % of control and 124 % of control | endpoint: median survival time, dose: 12.5 mg/kg/injection, schedule: Q01DX009 (ip), vehicle: water 122 % of control | endpoint: median survival time, dose: 25.0 mg/kg/injection, schedule: Q01DX009 (ip), vehicle: water 120 % of control

COC(=O)c1cccc(C)n1
inactive: [1] 108 % of control | [2] 94 % of control | [3] 94 % of control

O=[N+]([O-])c1ccc(/C=C/C=C/c2ccccc2)cc1
inactive: [4] 101 % of control | [5] 98 % of control | [6] 95 % of control

Nc1ncnc(N)c1NC(=O)c1ccc(CCCCc2ccccc2)cc1
inactive: [4] 104 % of control | [5] 96 % of control | [6] 92 % of control

Cc1ccccc1C(C)(C#N)Nc1ccccc1 (stereo not drawn)
inactive: [4] 101 % of control | [5] 103 % of control | [6] 104 % of control

C1C[N-]CC[N-]CC[N-]CC[N-]1.[Cl][Rh][Cl]
inactive: endpoint: mean survival time, dose: 1.56 mg/kg/injection, schedule: Q01DX009 (ip), vehicle: saline 100 % of control | endpoint: mean survival time, dose: 3.13 mg/kg/injection, schedule: Q01DX009 (ip), vehicle: saline 102 % of control | endpoint: mean survival time, dose: 6.25 mg/kg/injection, schedule: Q01DX009 (ip), vehicle: saline 100 % of control | [7] 98 % of control and 108 % of control

CN(C)C(=O)/N=N/C(=O)N(C)C
inactive: endpoint: mean survival time, dose: 100.0 mg/kg/injection, schedule: Q01DX001 (ip), vehicle: saline 104 % of control

CN(Cc1ccc(Cl)cc1)N=Nc1ccc(C(=O)O)cc1
inactive: endpoint: mean survival time, dose: 7.9 mg/kg/injection, schedule: Q01DX009 (ip), vehicle: other 94 % of control | endpoint: mean survival time, dose: 15.7 mg/kg/injection, schedule: Q01DX009 (ip), vehicle: other 94 % of control | endpoint: mean survival time, dose: 31.3 mg/kg/injection, schedule: Q01DX009 (ip), vehicle: other 105 % of control | endpoint: mean survival time, dose: 62.5 mg/kg/injection, schedule: Q01DX009 (ip), vehicle: other 90 % of control | [8] 101 % of control | endpoint: mean survival time, dose: 125.0 mg/kg/injection, schedule: Q01DX009 (ip), vehicle: other 97 % of control | [9] 93 % of control

CC(C)(CBr)COC(=O)Nc1cccc2ccccc12
inactive: endpoint: mean survival time, dose: 12.5 mg/kg/injection, schedule: Q01DX009 (ip), vehicle: saline with Tween-80 91 % of control | endpoint: mean survival time, dose: 25.0 mg/kg/injection, schedule: Q01DX009 (ip), vehicle: saline with Tween-80 91 % of control | [10] 95 % of control

ClC(Cl)(Cl)C1OCCO1
inactive: [1] 95 % of control | [4] 97 % of control | [2] 104 % of control | [5] 102 % of control | [3] 91 % of control | [6] 97 % of control

CC(=O)Nc1nn(C)c(C#N)c1C#N
inactive: endpoint: mean survival time, dose: 37.5 mg/kg/injection, schedule: Q04DX002 (ip), vehicle: saline with Tween-80 106 % of control | endpoint: mean survival time, dose: 75.0 mg/kg/injection, schedule: Q04DX002 (ip), vehicle: saline with Tween-80 106 % of control | endpoint: mean survival time, dose: 150.0 mg/kg/injection, schedule: Q04DX002 (ip), vehicle: saline with Tween-80 102 % of control

Cc1ccccc1N=Cc1ccc(N(C)C)cc1
inactive: [1] 96 % of control | [4] 97 % of control | [2] 95 % of control | [5] 103 % of control | [3] 90 % of control | [6] 98 % of control

O=CNNC(=S)Nc1ccccc1
inactive: [10] 100 % of control | [1] 96 % of control | [2] 96 % of control

Cc1ccc(C2OC23CC(C)(C)c2ccccc2C3=O)cc1 (stereo not drawn)
inactive: [8] 100 % of control | [9] 96 % of control | endpoint: mean survival time, dose: 400.0 mg/kg/injection, schedule: Q01DX009 (ip), vehicle: other 107 % of control

Cc1c2ccncc2c(C)c2c1oc1ccccc12
inactive: endpoint: mean survival time, dose: 100.0 mg/kg/injection, schedule: Q01DX001 (ip), vehicle: other 108 % of control | endpoint: mean survival time, dose: 200.0 mg/kg/injection, schedule: Q01DX001 (ip), vehicle: other 98 % of control | endpoint: mean survival time, dose: 400.0 mg/kg/injection, schedule: Q01DX001 (ip), vehicle: other 95 % of control

Cc1ccc2c(c1)NP(=S)(c1ccccc1)N2 (stereo not drawn)
inactive: [1] 91 % of control | [2] 86 % of control | [3] 94 % of control

Nc1ccc(CSc2ccc(Cl)cc2)cc1
inactive: endpoint: mean survival time, dose: 400.0 mg/kg/injection, schedule: Q04DX002 (ip), vehicle: Klucel (hydroxypropylcellulose) (HPC) 89 % of control

CCCCCCCCCCCCCCCC(=O)Nc1ccc(CC)cc1
inactive: endpoint: mean survival time, dose: 100.0 mg/kg/injection, schedule: Q04DX002 (ip), vehicle: saline with Tween-80 103 % of control | endpoint: mean survival time, dose: 200.0 mg/kg/injection, schedule: Q04DX002 (ip), vehicle: saline with Tween-80 91 % of control | endpoint: mean survival time, dose: 400.0 mg/kg/injection, schedule: Q04DX002 (ip), vehicle: saline with Tween-80 95 % of control

CCCC(=O)Nc1ncnc2c1ncn2C1OC2COP(=O)(O)OC2C1OC(=O)CCC (stereo not drawn)
inactive: [7] 109 % of control | endpoint: mean survival time, dose: 12.5 mg/kg/injection, schedule: Q01DX009 (ip), vehicle: suspension in saline 98 % of control | [11] 97 % of control | endpoint: mean survival time, dose: 25.0 mg/kg/injection, schedule: Q01DX009 (ip), vehicle: suspension in saline 100 % of control | [12] 98 % of control | endpoint: mean survival time, dose: 50.0 mg/kg/injection, schedule: Q01DX009 (ip), vehicle: suspension in saline 100 % of control | endpoint: mean survival time, dose: 100.0 mg/kg/injection, schedule: Q01DX009 (ip), vehicle: saline 101 % of control | endpoint: mean survival time, dose: 100.0 mg/kg/injection, schedule: Q01DX009 (ip), vehicle: suspension in saline 105 % of control | endpoint: mean survival time, dose: 200.0 mg/kg/injection, schedule: Q01DX009 (ip), vehicle: saline 98 % of control | endpoint: mean survival time, dose: 200.0 mg/kg/injection, schedule: Q01DX009 (ip), vehicle: suspension in saline 94 % of control | endpoint: mean survival time, dose: 400.0 mg/kg/injection, schedule: Q01DX009 (ip), vehicle: saline 103 % of control | endpoint: mean survival time, dose: 400.0 mg/kg/injection, schedule: Q01DX009 (ip), vehicle: suspension in saline 115 % of control

CC[C@H]1CN2CCc3cc(OC)c(OC)cc3[C@@H]2C[C@@H]1C[C@@H]1c2cc(OC)c(OC)cc2CCN1N=O
inactive: [7] 104 % of control | [11] 104 % of control | endpoint: mean survival time, dose: 25.0 mg/kg/injection, schedule: Q04DX003 (ip), vehicle: saline 100 % of control | [12] 107 % of control | endpoint: mean survival time, dose: 50.0 mg/kg/injection, schedule: Q04DX003 (ip), vehicle: saline 95 % of control

CCCCCCCCCc1nc(N)nc(N)n1
inactive: [10] 104 % of control | [1] 104 % of control | [2] 104 % of control

COC(=O)Nc1ccc(OS(=O)(=O)N(C)C)cc1
inactive: [4] 103 % of control | [5] 98 % of control | [6] 103 % of control

O=C(Cc1cccc2ccccc12)N/N=C/c1ccc2c(c1)CCC2
inactive: [4] 89 % of control | [5] 95 % of control | [6] 95 % of control

Cc1ccccc1C[P+](c1ccccc1)(c1ccccc1)c1ccccc1
inactive: endpoint: mean survival time, dose: 1.0 mg/kg/injection, schedule: Q01DX009 (ip), vehicle: saline 88 % of control | endpoint: mean survival time, dose: 2.0 mg/kg/injection, schedule: Q01DX009 (ip), vehicle: saline 96 % of control | endpoint: mean survival time, dose: 4.0 mg/kg/injection, schedule: Q01DX009 (ip), vehicle: saline 92 % of control | endpoint: mean survival time, dose: 8.0 mg/kg/injection, schedule: Q01DX009 (ip), vehicle: saline 108 % of control
